Source: US9096629B2, “Process of forming iron hydroxypyrone compounds” (Iron Therapeutics Holdings AG, priority 2011, dated 2015)
Blank lines part the entries; values can stand above or below the compound they belong to.

What was measured:
[1] = hydrated ion in aqueous solution; cited from earlier work
[2] = Solubility in water / aqueous solution; type: physicochemical
[3] = Stability of maltol in hot aqueous solution; type: physicochemical; details: near boiling temperatures

Compound: [Cl][Fe]([Cl])[Cl] [Ferric chloride]
Ka [1]: 7×10^−3

maximum solubility in water ([2]; water, about 25° C.): about 3.5 g/100 ml water
Compound: Cc1occc(=O)c1[O-].Cc1occc(=O)c1[O-].Cc1occc(=O)c1[O-].[Fe+3] [ferric trimaltol]

solubility in aqueous alkali hydroxide solutions ([2]; aqueous alkali hydroxide solutions): very soluble
solubility on heating ([2]; heating to near boiling temperatures): 10 g/100 ml
solubility at low pH ([2]; low pH values of iron chloride solutions (pH 1-5)): virtually insoluble
solubility on heating ([2]; water, heating to temperatures above 60° C.): up to 10 g/100 ml
maximum aqueous solubility ([2]; water, pH range 6-8, 20° C.): 1 g/100 ml
stability in aqueous solution [3]: stable
Compound: Cc1occc(=O)c1O [maltol, 3-hydroxy-2-methyl-4-pyrone]

Compound: [Cl][Fe][Cl] [ferrous chloride]
Ka [1]: 5×10^−9
